≈ marks a conversion by molar mass, not a printed value.
Key:
[1] = tested on: normal lung fibroblasts IMR-90; conditions: human
[2] = tested on: human cells (A498, BEAS-2B, Caco-2, HaCaT, HepG2, IMR-90)
[3] = Cytotoxic assay (resazurin); conditions: human, HepG2 liver cells
Candida auris (DSM21092) = assay: MIC assay; type: cell-based; conditions: Candidozyma auris, two-fold serial dilutions in liquid media, n = 2–3
[4] = tested on: Bacillus anthracis (CNR-charbon_04022); assay: microbe, parasite or virus in culture; type: cell-based; conditions: read-out: MIC Bacillus anthracis (CNR-charbon_04022)
[5] = tested on: Clostridium difficile (DSM1296); assay: MIC assay; type: cell-based; conditions: Clostridioides difficile, two-fold serial dilutions in liquid media, n = 2–3
[6] = tested on: Klebsiella pneumonia (DSM26371); assay: MIC assay; type: cell-based; conditions: two-fold serial dilutions in liquid media, n = 2–3
P. aeruginosa ATCC9027 = assay: MIC assay; type: cell-based, Pseudomonas aeruginosa; conditions: Pseudomonas aeruginosa, ATCC9027; two-fold serial dilutions in liquid media; n = 2–3
[7] = Cytotoxic assay (resazurin); conditions: human, A498 kidney epithelial cells
[8] = tested on: Acinetobacter baumannii (DSM30007); assay: MIC assay; type: cell-based; conditions: two-fold serial dilutions in liquid media, n = 2–3
[9] = tested on: normal epidermal keratinocytes (HaCaT); conditions: human
[10] = tested on: Streptococcus pyogenes (DSM20565); assay: MIC assay; type: cell-based; conditions: two-fold serial dilutions in liquid media, n = 2–3
M. smegmatis ATCC700084 = assay: MIC assay (REMA); type: cell-based, Mycobacterium smegmatis; conditions: Mycolicibacterium smegmatis, ATCC700084, REMA microdilution, n = 2–3
[11] = Cytotoxic assay, summary over the six human cell types; conditions: human, 48 h exposure
[12] = tested on: human cells (A498, BEAS-2B, Caco-2, HaCaT, HepG2, IMR-90); assay: as above
Bacillus cereus (DSM31) = assay: MIC assay; type: cell-based; conditions: two-fold serial dilutions in liquid media, n = 2–3
[13] = Cytotoxic assay (resazurin); conditions: human, HaCaT normal epidermal keratinocytes
E. coli ATCC8739 = assay: MIC assay; type: cell-based, Escherichia coli; conditions: Escherichia coli, ATCC8739; two-fold serial dilutions in liquid media; n = 2–3
[14] = tested on: Listeria monocytogenes (DSM20600); assay: MIC assay; type: cell-based; conditions: two-fold serial dilutions in liquid media, n = 2–3
[15] = tested on: Aspergillus fumigatus (DSM819); assay: MIC assay; type: cell-based; conditions: two-fold serial dilutions in liquid media, n = 2–3
MRSA (ATCCBAA-1717) = assay: MIC assay; type: cell-based, methicillin-resistant S. aureus; conditions: Staphylococcus aureus, read-out: MIC MRSA (ATCCBAA-1717)
[16] = tested on: Clostridium perfringens (ATCC13124); assay: microbe, parasite or virus in culture; type: cell-based; conditions: ATCC13124, read-out: MIC Clostridium perfringens (ATCC13124)
[17] = tested on: intestinal cell line Caco-2; conditions: human
B. subtilis ATCC6633 = assay: MIC assay; type: cell-based, Bacillus subtilis; conditions: Bacillus subtilis, ATCC6633; two-fold serial dilutions in liquid media; n = 2–3
[18] = tested on: Propionibacterium acnes (ATCC6919); assay: MIC assay; type: cell-based; conditions: Cutibacterium acnes, two-fold serial dilutions in liquid media, n = 2–3
[19] = Cytotoxic assay (resazurin); conditions: human, IMR-90 normal lung fibroblasts
liver cell line HepG2 = conditions: human
[20] = tested on: Mycobacterium abscessus S (CIP 104536^T); assay: MIC assay (REMA); type: cell-based; conditions: REMA microdilution, n = 2–3
[21] = Cytotoxic assay (resazurin); conditions: human, Caco-2
[22] = Cytotoxic assay (resazurin); conditions: human, BEAS-2B normal lung epithelial cells
[23] = tested on: Francisella tularensis (NR-643); assay: microbe, parasite or virus in culture; type: cell-based; conditions: read-out: MIC Francisella tularensis (NR-643)
[24] = tested on: Cryptococcus neoformans (DSM11959); assay: MIC assay; type: cell-based; conditions: two-fold serial dilutions in liquid media, n = 2–3
[25] = tested on: Candida glabrata (DSM11226); assay: MIC assay; type: cell-based; conditions: Nakaseomyces glabratus, two-fold serial dilutions in liquid media, n = 2–3
[26] = tested on: normal lung epithelial cells BEAS-2B; conditions: human
[27] = tested on: Enterococcus faecium (DSM20477); assay: MIC assay; type: cell-based; conditions: two-fold serial dilutions in liquid media, n = 2–3
[28] = tested on: Vibrio alginolyticus (DSM2171); assay: MIC assay; type: cell-based; conditions: two-fold serial dilutions in liquid media, n = 2–3
[29] = tested on: Enterococcus faecalis (DSM2570); assay: MIC assay; type: cell-based; conditions: two-fold serial dilutions in liquid media, n = 2–3
[30] = tested on: Clostridium botulinum (DSM1985); assay: microbe, parasite or virus in culture; type: cell-based; conditions: DSM1985, read-out: MIC Clostridium botulinum (DSM1985)

CC(=O)Nc1ccc2c(c1)C(=O)/C(=C/c1cccc(OCc3ccccc3)c1)O2 [Compound 10, (Z)-N-(2-(3-(benzyloxy)benzylidene)-3-oxo-2,3-dihydrobenzofuran-5-yl)acetamide]
TI with MIC of 0.78 µM, IMR-90 [1]: 540.2
TI values, range over human cells [2]: 216.6-605.6
CC50 at 48 h [3]: 472 µM
MIC (Candida auris (DSM21092)): 50 µM (≈ 19.3 µg/mL)
MIC [4]: 12.5 µM (≈ 4.82 µg/mL)
MIC [5]: 12.5 µM (≈ 4.82 µg/mL)
MIC ([6]; Klebsiella pneumoniae, DSM26371): > 100 µM
MIC [6]: >100 µM
MIC (P. aeruginosa ATCC9027): 25 µM (≈ 9.64 µg/mL)
CC50 at 48 h [7]: 398 µM
MIC [8]: 12.5 µM (≈ 4.82 µg/mL)
TI with MIC of 0.78 µM, HaCaT [9]: 344.2
MIC [10]: 50 µM (≈ 19.3 µg/mL)
MIC (M. smegmatis ATCC700084): 50 µM (≈ 19.3 µg/mL)
CC50 at 48 h ([11]; Highest CC50, highest of the six human cell types): 472 µM
CC50 at 48 h ([11]; Lowest CC50, lowest of the six human cell types): 169 µM
CC50 at 48 h ([11]; Mean CC50, mean over the six human cell types): 322 µM
Highest TI ([12]; highest CC50 on human cells divided by MIC on S. aureus): 37.7
Lowest TI ([12]; lowest CC50 on human cells divided by MIC on S. aureus): 13.5
MIC (Bacillus cereus (DSM31)): 12.5 µM (≈ 4.82 µg/mL)
CC50 at 48 h [13]: 268 µM
MIC (E. coli ATCC8739): 12.5 µM (≈ 4.82 µg/mL)
MIC [14]: 3.12 µM (≈ 1.2 µg/mL)
MIC ([15]; Aspergillus fumigatus, DSM819): > 100 µM
MIC Aspergillus fumigatus (DSM819) [15]: inactive
MIC (MRSA (ATCCBAA-1717)): 12.5 µM (≈ 4.82 µg/mL)
MIC [16]: > 100 µM
TI with MIC of 0.78 µM, Caco-2 [17]: 255.8
MIC (B. subtilis ATCC6633): 3.12 µM (≈ 1.2 µg/mL)
MIC [18]: 100 µM (≈ 38.5 µg/mL)
CC50 at 48 h [19]: 421 µM
TI with MIC of 0.78 µM, HepG-2 (liver cell line HepG2): 605.6
MIC ([20]; Mycobacteroides abscessus, CIP104536, S morphotype): > 100 µM
MIC Mycobacterium abscessus S (CIP 104536^T) ([20]; S morphotype): inactive
CC50 at 48 h [21]: 200 µM
CC50 at 48 h [22]: 169 µM
MIC [23]: 50 µM (≈ 19.3 µg/mL)
MIC [24]: 25 µM (≈ 9.64 µg/mL)
MIC [25]: 50 µM (≈ 19.3 µg/mL)
TI with MIC of 0.78 µM, BEAS-2B [26]: 216.6
MIC [27]: 100 µM (≈ 38.5 µg/mL)
MIC [28]: 25 µM (≈ 9.64 µg/mL)
MIC [29]: 50 µM (≈ 19.3 µg/mL)
MIC [30]: 0.78 µM (≈ 0.301 µg/mL)
